Results from US6255324A, “Amino-and mercurio-substituted 4',5'-dihydropsoralens and therapeutical uses thereof” (priority 1998, dated 2001).
Where two headings read alike, the source gives them in different places.

Tests used:
Chlorella vulgaris = assay: Algicidal assay, MIC against Chlorella in modified Allen's medium; format: cell-based; conditions: Table III, 14 days, 26 to 28° C, no unit in table (ppm)
Description: To assay the activity of the 5'-substituted-4',5'-dihydropsoralens of the invention against Chlorella, the Allen method (A. A. Allen, […], Journal of Phycology, 4, 1-4) was employed. […] The minimum inhibitory concentration (MIC) of the compounds tested against the fungus Aspergillus niger using an MSY broth is shown in Table II.
Test tubes containing modified Allen's medium were treated with increasing dosages of the compound to be tested and inoculated with a suspension of algal cells. After fourteen days of incubation, algal growth was rated as positive or negative. The minimum inhibitory concentration (MIC) of the compound is the smallest dosage showing negative algal growth.
The apparatus required consisted of sterilized test tubes, 18-150 mm and an incubator, capable of a constant (±2° C.) temperature within 26 to 28° C. The following procedure was used:
(1) Stock solutions (g/200 g deionized water each) were generated with: K2 HPO4, 1.50 g; MgSO4, 7H2 O, 1.50 g; Na2 CO3, 0.80 g; CaCl2 2H2 O, 0.50 g; Na2 SiO3 9H2 O, 1.16 g, and Citric acid, 1.20 g.
(3) The modified Allen's medium was prepared in a volumetric flask by the addition of 1.5 g NaNO3, 5.0 mL stock solution K2 HPO4, 5.0 mL stock solution MgSO4 -- 7H2 O, 5.0 mL Stock solution Na2 CO3, 10.0 mL stock solution CaCl2 2H2 O, 10.0 mL stock solution Na2 SiO3 9H2 O, 1.0 mL stock solution Citric acid and 1.0 mL stock solution PIV metal with enough deionized water to make 1000 mL of medium (Allen, 1968). The pH was adjusted to 7.8 and 5 mL of medium is added to each test tube. The tubes were sterilized in the autoclave for 20 minutes at 15 psi at 121° C. The test tubes were allowed to cool to 45-50° C. before adding the test compound and the inoculurn to the medium.
(4) The inoculum was a cell suspension from a 14-day-old culture of Chlorella vulgaris (UTEX 26, University of Texas) that was grown in modified Allen's medium.
The concentration of the stock solution in water or acetone of the compound to be tested is dependent on the largest dose required to be tested. Dilutions of the stock solution were made so that 100 μL of the stock solution of the corresponiding dilution was added per test tube. 100 μL of the solvent was added to the control to prepare the stock solution.
The inoculation consists of the addition of 100 μL of inoculurn per test tube.
The incubation of the control test tube and the test tubes containing compound and inoculum occurred in an incubator set between 26 to 28° C., with the temperature not varying more than ±2° C. Light was provided by plant growth fluorescent tubes and the test tubes were allowed to stand in the incubator for 14 days.
Rating of the test tubes containing different dosages of the compound will be positive or negative. […] If the medium in the rubes remains colorless, a negative (not contaminated) rating is given. The control is always positive. The minimum inhibitory concentration (MIC) of the compound is determined to be the smallest dosage showing negative algal growth.

Aspergillus niger = assay: Fungicidal assay, MIC against Aspergillus niger in MSY broth; format: cell-based; conditions: Table II, four days at 28° C, in the dark, no unit in table (ppm levels)
Description: The antifungal activities of compounds synthesized were measured by determining the inhibition of growth of Aspergillus niger in a standard liquid medium. The liquid growth medium is described as a solution of mineral salts and yeast extract (MSY). The MSY broth was prepared as described in ASTM G21-70, and amended with glucose (10 g/l) and yeast extract (1 g/l). An aliquot ([…]) of sterile medium was dispensed into each test well of a standard 96 well microplate (Corning No. 430247). Stock solutions of test compounds were prepared by dissolving the materials in 9:1 (v/v) solutions of acetone:methanol. Appropriate volumes of stock solutions were added to the test wells in order to achieve the desired ppm levels. Each test well (plus controls) was then inoculated with […] of a standardized suspension of Aspergillus niger. The cell suspension was prepared by suspending viable cells from a slant of potato dextrose agar into sterile, deionized water. The suspension was then adjusted to provide OD686 =0.28. This density contains approximately 2.5×10^7 CFU (colony forming units)/ml. The microplates were incubated in the dark for four days at 28° C. The optical density for each well at 686 nm was then recorded automatically using a SpectraMax 340 microplate reader (Molecular Devices Corp., Sunnyvale, Calif.). All wells were visually inspected in order to corroborate data from the instrument.
The antifungal activity was measured as minimum inhibitory concentrations or MIC of the 5'-substituted-4',5'-dihydropsoralens.

PAM 212 keratinocytes [1] = assay: PAM 212 keratinocyte growth inhibition (photo-toxicity with UVA / dark-toxicity without light); format: cell-based; conditions: UVA 320-400 nm, 1.28 J/cm2, growth 4-5 days
Description: Representative examples of the compounds described and claimed herein were tested in this assay for biological activity and found to be potent inhibitors of cell growth. Inhibition of cell growth was rapid, dependent on concentration, and required light activation. […] A description of this assay follows.
The photobiological activity was assayed using a keratinocyte cell line grown in a monolayer culture. In this assay, PAM 212 keratinocytes were grown in Dulbecco's Modified Eagle's medium supplemented with 10% newborn calf serum in a 5% carbon dioxide incubator. Cells were inoculated into 6-well Falcon plastic culture dishes at 25,000 cells per well. After 24 hours, the medium was charged to fresh growth medium supplemented with increasing concentrations of the test compounds or the control medium. Controls and test concentrations were analyzed in triplicate.
These plates were then incubated in a 37 degree C. carbon dioxide incubator. After 30 minutes culture plates were exposed to UVA light (UVA, 320-400 nm) emitted from a bank of four BLB fluorescent light tubes (F40 BL, Sylvania) placed approximately 10 cm above the cell culture plates. The incident light on the culture plates was 2.4 mW/cm^2 as measured with an International Light UV radiometer, Model IL 442A. The cells were exposed to 1.28 J/square centimeter of UVA.
After completion of the irradiation phase, the cell culture medium was drained, the cells refed with fresh growth medium and then re-incubated in the carbon dioxide incubator to allow for cell growth. After 4-5 days of growth the culture plates were removed from the incubator and the cell culture medium was drained. The cells were detached from the plates with trypsin and counted in a Coulter Counter. For control cells or for cells treated with test compounds, cell growth was determined as a percentage of control. […] This value is shown in Table I for a variety of phototherapeutics.

[2] = system: Mycobacterium tuberculosis H37Rv; assay: Antituberculosis primary in vitro screen, BACTEC 460; format: cell-based, Mycobacterium tuberculosis H37Rv ATCC 27294; conditions: 12.5 μg/mL, 37° C
PAM 212 keratinocytes [3] = assay: PAM 212 keratinocyte growth inhibition (photo-toxicity with UVA / dark-toxicity without light); format: cell-based

**Q.** `[I][Hg][CH2]C1Cc2ccccc2O1` (centres unmarked) [T = HgI, 2-Iodomercurimethyl-2,3-dihydrobenzofuran] was tested. Which MIC (Chlorella vulgaris) did it give?
**A.** The MIC was 10.

**Q.** And the MIC (Aspergillus niger)?
**A.** The MIC was under 8.

**Q.** And the IC50 (PAM 212 keratinocytes [1])?
**A.** Its IC50 is 5.7 µM.

**Q.** What about the “Anti-tubercular Activity (% inhibition)” value [2] of the same molecule?
**A.** The value was 99%.

**Q.** And the IC50 (PAM 212 keratinocytes [3])?
**A.** Its IC50 is 12 µM.
